Measured values: US20250333397A1 (REMIX THERAPEUTICS INC., priority 2021, published 2025)
Where two headings read alike, the source gives them in different places.

Columns and labels:
Type in all cases: cell-based, human
HTT mRNA = assay: RT-qPCR splicing assay, HTT canonical (CJ) and alternative (AJ) junction mRNA; conditions: Homo sapiens; for AC50: read-out: HTT AJ (AC50, increase in AJ mRNA)
How it was run: (§1)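 CJ and AJ junction levels were quantified by RT-qPCR on lysates, with housekeeper ΔCt normalized to DMSO (ΔΔCt) and expressed as RQ = 2^(-ΔΔCt). Before lysis, K562 or A673 cells had 24 h compound exposure at 37 °C. Dosing was 11 points, 3-fold, from 10 uM final, with DMSO at most 0.25%.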

SMN2 mRNA = assay: RT-qPCR splicing assay panel, SMN2 canonical junction (CJ) mRNA; conditions: Homo sapiens, Table 4B; gene panel; read-out: SMN2 (IC50, decrease in CJ mRNA levels)
How it was run: as §1

MYB mRNA = assay: RT-qPCR splicing assay, MYB canonical (CJ) and alternative (AJ) junction mRNA; conditions: Homo sapiens; for AC50: read-out: MYB AJ (AC50, increase in AJ mRNA)
How it was run: as §1

Target C mRNA = assay: RT-qPCR splicing assay panel, Target C canonical junction (CJ) mRNA; conditions: Homo sapiens, Table 4B; gene panel; read-out: Target C (IC50, decrease in CJ mRNA levels)
How it was run: as §1

[1] = 24 h, Table 3B, A673 or K562 cells, 24 h treatment
[2] = 24 h, Table 3B, A673 or K562 cells, 24 h treatment, read-out: HTT CJ (IC50, decrease in CJ mRNA)
[3] = Table 4B, gene panel, read-out: HTT (IC50, decrease in CJ mRNA levels)
[4] = 24 h, Table 3B, A673 or K562 cells, 24 h treatment, read-out: MYB CJ (IC50, decrease in CJ mRNA)
[5] = Table 4B, gene panel, read-out: MYB (IC50, decrease in CJ mRNA levels)

Row | SMILES | IC50 (HTT mRNA; [2]) [nM] | IC50 (HTT mRNA; [3]) [nM] | IC50 (SMN2 mRNA) [nM] | IC50 (MYB mRNA; [4]) [nM] | IC50 (MYB mRNA; [5]) [nM] | IC50 (Target C mRNA) [nM] | AC50 (HTT mRNA; [1]) [nM] | AC50 (MYB mRNA; [1]) [nM]
1 | Cc1nc2cc(O)c(-c3ccc(N4CCC(NC5CCC5)C4)nn3)cc2o1 (stereo not drawn) [Compound 830] | > 10000 | > 10000 | > 10000 | > 10000 | > 10000 | > 10000 | > 10000 | > 10000
2 | Cc1nc2ccc(-c3ccc(N4CCC(NC(C)(C)C)C4)nn3)nc2o1 (stereo not drawn) [Compound 832] | < 100 | < 100 | < 100 | 100 to 1000 | 100 to 1000 | 100 to 1000 | 100 to 1000 | 100 to 1000
3 | Cc1nc2cc(O)c(-c3ccc(N4CCC(C)(NC(C)(C)C)C4)nn3)cc2o1 (stereo not drawn) [Compound 837] | 100 to 1000 | 100 to 1000 | 100 to 1000 | 1000 to 10000 | 1000 to 10000 | 1000 to 10000 | 1000 to 10000 | 1000 to 10000
4 | Cc1nc2c(F)c(O)c(-c3ccc(N4CC[C@H](NC(C)(C)C)C4)nn3)cc2o1 [Compound 843] | > 10000 | > 10000 | > 10000 | > 10000 | > 10000 | > 10000 | > 10000 | > 10000
5 | Cc1nc2cc(O)c(-c3cnc(N4CC[C@@H](N(C)C(C)(C)C)C4)nn3)cc2o1 [Compound 856] | 100 to 1000 | 100 to 1000 | 100 to 1000 | 1000 to 10000 | 1000 to 10000 | 1000 to 10000 | 1000 to 10000 | 1000 to 10000
6 | Cc1nc2cc(O)c(-c3cnc(N4CC[C@H](N(C)C(C)(C)C)C4)nn3)cc2o1 [Compound 857] | < 100 | < 100 | < 100 | 100 to 1000 | 100 to 1000 | 100 to 1000 | 100 to 1000 | 100 to 1000
7 | Cc1nc2cc(O)c(-c3ccc(N4CC[C@H](N(C)C(C)(C)C)C4)nn3)cc2o1 [Compound 858] | < 100 | < 100 | < 100 | 100 to 1000 | 100 to 1000 | 100 to 1000 | < 100 | 100 to 1000
8 | Cc1nc2cc(O)c(-c3ccc(N4CC[C@@H](N(C)C(C)(C)C)C4)nn3)cc2o1 [Compound 859] | 1000 to 10000 | 1000 to 10000 | < 100 | 1000 to 10000 | 1000 to 10000 | 1000 to 10000 | 1000 to 10000 | 1000 to 10000
9 | Cn1ccc2cc(O)c(-c3cnc(N4CCC(NC(C)(C)C)C4)nn3)cc2c1=O (stereo not drawn) [Compound 869] | > 10000 | > 10000 | > 10000 | > 10000 | > 10000 | > 10000 | > 10000 | > 10000
10 | Cc1nc2cc(O)c(-c3cnc(N4C[C@@H](C)N[C@@H](C5CC5)C4)nn3)cc2o1 [Compound 870] | 1000 to 10000 | 1000 to 10000 | 1000 to 10000 | 1000 to 10000 | 1000 to 10000 | 1000 to 10000 | 1000 to 10000 | 1000 to 10000

Now from value to compound, other results behind:

Row | IC50 (HTT mRNA; [2]) [nM] | IC50 (HTT mRNA; [3]) [nM] | IC50 (SMN2 mRNA) [nM] | IC50 (MYB mRNA; [4]) [nM] | IC50 (MYB mRNA; [5]) [nM] | IC50 (Target C mRNA) [nM] | SMILES | AC50 (HTT mRNA; [1]) [nM] | AC50 (MYB mRNA; [1]) [nM]
11 | > 10000 | > 10000 | 1000 to 10000 | > 10000 | > 10000 | > 10000 | Cc1ccc2cc(-c3ccc(N4CCC(NC(C)(C)C)C4)nn3)c(O)cc2n1 (stereo not drawn) [Compound 817] | > 10000 | > 10000
12 | > 10000 | > 10000 | > 10000 | > 10000 | > 10000 | > 10000 | Cc1ncc2cc(-c3ccc(N4CCC(NC(C)(C)C)C4)nn3)c(O)cc2n1 (stereo not drawn) [Compound 818] | > 10000 | > 10000
13 | 1000 to 10000 | 1000 to 10000 | 100 to 1000 | 1000 to 10000 | 1000 to 10000 | 1000 to 10000 | COc1cc2cc(-c3ccc(N4CCC(NC(C)(C)C)C4)nn3)c(O)cc2nn1 (stereo not drawn) [Compound 819] | 1000 to 10000 | 1000 to 10000
14 | 100 to 1000 | 100 to 1000 | < 100 | 1000 to 10000 | 1000 to 10000 | 1000 to 10000 | CC(C)(C)NC1CCN(c2ccc(-c3cc4oc(CC#N)nc4cc3O)nn2)C1 (stereo not drawn) [Compound 820] | 100 to 1000 | 100 to 1000
15 | 100 to 1000 | 100 to 1000 | 100 to 1000 | 100 to 1000 | 100 to 1000 | 100 to 1000 | Cc1nc2cc(O)c(-c3ccc(N4CCC(NC(C)(C)C(C)(C)C)C4)nn3)cc2o1 (stereo not drawn) [Compound 835] | 100 to 1000 | 100 to 1000
16 | 100 to 1000 | 100 to 1000 | 100 to 1000 | 1000 to 10000 | 1000 to 10000 | 1000 to 10000 | CCC(C)(C)NC1CCN(c2ccc(-c3cc4oc(C)nc4cc3O)nn2)C1 (stereo not drawn) [Compound 836] | 1000 to 10000 | 1000 to 10000
17 | < 100 | < 100 | < 100 | 100 to 1000 | 100 to 1000 | 100 to 1000 | CC(C)(C)NC1CCN(c2ccc(-c3cc4ccncc4cc3O)nn2)C1 (stereo not drawn) [Compound 845] | < 100 | 100 to 1000
18 | 100 to 1000 | 100 to 1000 | 100 to 1000 | 1000 to 10000 | 1000 to 10000 | 1000 to 10000 | Cc1nc2cc(O)c(-c3ccc(N4CCC(NC(C)(C)C(C)C)C4)nn3)cc2o1 (stereo not drawn) [Compound 862] | 100 to 1000 | 1000 to 10000
19 | 100 to 1000 | 100 to 1000 | 100 to 1000 | > 10000 | > 10000 | 1000 to 10000 | Cn1ccc2cc(O)c(-c3ccc(N4CC[C@H](NC(C)(C)C)C4)nn3)cc2c1=O [Compound 873] | 1000 to 10000 | 1000 to 10000
20 | < 100 | < 100 | < 100 | 100 to 1000 | 100 to 1000 | 100 to 1000 | Cc1nc2cc(O)c(-c3ccc(N4CC[C@@H](NC(C)(C)C(C)C)C4)nn3)cc2o1 [Compound 874] | < 100 | 100 to 1000
21 | < 100 | < 100 | < 100 | 100 to 1000 | 100 to 1000 | 100 to 1000 | Cc1nc2cc(O)c(-c3ccc(N4CC[C@H](NC(C)(C)C(C)C)C4)nn3)cc2o1 [Compound 875] | < 100 | 100 to 1000
